The NIST ThermoML archive (doi:10.1016/j.jct.2015.12.028)

Details: Liquid, light scattering

CCCCCCCC(=O)OCC [ethyl octanoate]
Details | speed of sound [m/s]
293.25 K, 100 kPa | 1281
293.65 K, 1000 kPa | 1284
293.67 K, 2510 kPa | 1290.6
293.69 K, 4020 kPa | 1296.8
293.72 K, 5520 kPa | 1301
293.75 K, 6980 kPa | 1307.1
293.77 K, 8490 kPa | 1313.5
293.77 K, 10010 kPa | 1325.8
303.05 K, 100 kPa | 1245.9
303.08 K, 8480 kPa | 1288.6
303.13 K, 7040 kPa | 1280.7
303.14 K, 3980 kPa | 1263.7
303.15 K, 1030 kPa | 1249.1
303.15 K, 2510 kPa | 1257.8
303.15 K, 5520 kPa | 1273.7
303.18 K, 10000 kPa | 1295.5
313.07 K, 100 kPa | 1211
313.15 K, 1000 kPa | 1214.2
313.28 K, 9990 kPa | 1263.2
313.38 K, 8530 kPa | 1257.4
313.39 K, 5500 kPa | 1240.3
313.4 K, 2510 kPa | 1223.2
313.4 K, 4060 kPa | 1230.6
313.41 K, 6980 kPa | 1249.6
322.88 K, 100 kPa | 1176.3
323.19 K, 8540 kPa | 1227.3
323.29 K, 10100 kPa | 1231.2
323.33 K, 1200 kPa | 1185.7
323.35 K, 2490 kPa | 1190.8
323.35 K, 3970 kPa | 1197.8
323.35 K, 5510 kPa | 1205.3
323.35 K, 7060 kPa | 1215
332.39 K, 9980 kPa | 1202.3
332.49 K, 8520 kPa | 1194.3
332.64 K, 7040 kPa | 1183.5
332.65 K, 5510 kPa | 1175.2
332.67 K, 2480 kPa | 1158.3
332.67 K, 4030 kPa | 1167.5
332.68 K, 980 kPa | 1149.1
333 K, 100 kPa | 1141.8
342.6 K, 890 kPa | 1113.2
342.61 K, 4000 kPa | 1133.9
342.64 K, 2530 kPa | 1124.1
342.71 K, 5490 kPa | 1142.7
342.74 K, 8510 kPa | 1163.8
342.77 K, 6990 kPa | 1152.8
342.94 K, 9970 kPa | 1168.8
343.12 K, 100 kPa | 1107.4
352.36 K, 100 kPa | 1073.3
353.44 K, 10120 kPa | 1135.6
353.54 K, 2480 kPa | 1088
353.54 K, 6990 kPa | 1116
353.54 K, 8520 kPa | 1129.3
353.56 K, 1030 kPa | 1080.3
353.58 K, 5480 kPa | 1103.2
353.6 K, 4000 kPa | 1096.3
363.16 K, 8500 kPa | 1095.2
363.19 K, 100 kPa | 1039.3
363.19 K, 1070 kPa | 1047.2
363.19 K, 7030 kPa | 1083.1
363.21 K, 2520 kPa | 1053.8
363.21 K, 4080 kPa | 1062
363.21 K, 5520 kPa | 1071.3
363.26 K, 10030 kPa | 1104.7
372.7 K, 2510 kPa | 1022.9
372.73 K, 3980 kPa | 1033.3
372.75 K, 8570 kPa | 1067.6
372.79 K, 100 kPa | 1005.6
372.79 K, 1040 kPa | 1013.2
372.82 K, 5530 kPa | 1046.7
372.82 K, 6960 kPa | 1055.2
372.95 K, 10040 kPa | 1074.2
382.73 K, 7000 kPa | 1020.4
382.8 K, 5550 kPa | 1012.8
382.82 K, 4060 kPa | 998.99
382.9 K, 2540 kPa | 988.47
382.95 K, 100 kPa | 972.04
382.95 K, 1050 kPa | 980.18
383.03 K, 8530 kPa | 1028.1
383.13 K, 9970 kPa | 1042.4
391.81 K, 8490 kPa | 1002.4
391.91 K, 9990 kPa | 1015
392.15 K, 7010 kPa | 991.89
392.29 K, 5490 kPa | 982.56
392.32 K, 100 kPa | 938.67
392.32 K, 1010 kPa | 945.16
392.33 K, 2550 kPa | 958.2
392.33 K, 4070 kPa | 971.34
402.89 K, 4000 kPa | 940.63
402.9 K, 7020 kPa | 959.16
402.91 K, 100 kPa | 905.5
402.91 K, 1000 kPa | 915.87
402.91 K, 2490 kPa | 928.04
402.91 K, 8480 kPa | 970.85
402.92 K, 10030 kPa | 980.74
402.93 K, 5470 kPa | 948.7
412.66 K, 8500 kPa | 941.83
412.76 K, 10040 kPa | 953.27
412.87 K, 7050 kPa | 922.57
413.17 K, 5530 kPa | 910.63
413.21 K, 100 kPa | 872.52
413.21 K, 1080 kPa | 878.09
413.21 K, 4060 kPa | 901.97
413.22 K, 2570 kPa | 890.98
423.24 K, 8520 kPa | 908.5
423.29 K, 7010 kPa | 892.99
423.3 K, 5530 kPa | 882.56
423.31 K, 2520 kPa | 857.92
423.32 K, 100 kPa | 839.73
423.32 K, 1150 kPa | 848.64
423.44 K, 10060 kPa | 919.28
423.53 K, 4090 kPa | 870.32
432.95 K, 5520 kPa | 847.49
432.96 K, 8480 kPa | 875.16
433.06 K, 10010 kPa | 888.66
433.09 K, 7010 kPa | 859.4
433.41 K, 2490 kPa | 823.86
433.44 K, 100 kPa | 807.14
433.44 K, 1010 kPa | 813.1
433.84 K, 4510 kPa | 835.67
442.69 K, 8510 kPa | 841.83
442.9 K, 7010 kPa | 829.81
442.99 K, 10020 kPa | 857.21
443.15 K, 5510 kPa | 817.42
443.16 K, 3990 kPa | 805.02
443.51 K, 2510 kPa | 790.8
443.55 K, 100 kPa | 774.74
443.55 K, 990 kPa | 780.57
452.41 K, 8480 kPa | 813.49
452.7 K, 7010 kPa | 798.22
453.15 K, 5520 kPa | 789.35
453.41 K, 10010 kPa | 826.34
453.47 K, 4510 kPa | 776.37
453.61 K, 2490 kPa | 762.74
453.66 K, 100 kPa | 742.53
453.66 K, 1010 kPa | 749.03
462.5 K, 7010 kPa | 772.63
463.14 K, 8480 kPa | 783.19
463.15 K, 5520 kPa | 760.28
463.24 K, 10010 kPa | 795.41
463.71 K, 2490 kPa | 730.68
463.78 K, 100 kPa | 710.51
463.78 K, 1010 kPa | 715.5
463.79 K, 4510 kPa | 744.72
472.07 K, 8500 kPa | 760.99
472.09 K, 1040 kPa | 688.23
472.09 K, 6960 kPa | 745.31
472.11 K, 2530 kPa | 704.34
472.14 K, 5460 kPa | 730.7
472.15 K, 4000 kPa | 718.2
472.17 K, 10000 kPa | 773.29
473.09 K, 100 kPa | 678.69

Details | speed of sound [m/s]
293.73 K | 1275.7
302.98 K | 1243
313.53 K | 1206.1
323.27 K | 1173.1
332.65 K | 1138.5
343.2 K | 1103.8
352.53 K | 1069.9
363.28 K | 1035.2
372.96 K | 1001.9
383 K | 969.3
392.03 K | 936.3
403.14 K | 901.4
413.12 K | 869.5
423.11 K | 835.7
433.2 K | 801.1
443.05 K | 770.7
453.11 K | 738.5
463.17 K | 705.5
472.16 K | 675
